Like-named read-outs stand apart in the source and are kept apart here.
Assay: Plasma exposure (dried blood spot) after single oral dose
Format: in vivo
Conditions: male, Sprague Dawley, rat, whole blood (dried blood spot), po
Method: Male Sprague Dawley rats at 6 to 7 weeks were dosed orally by p.o. gavage with different doses of BTTQ formulated in 1% hydroxyethlycellulose (Dow Corning, Midland, MI, United States) (w/v), 0.25% polysorbate 80 (Sigma-Aldrich, St. Louis, MO, United States) (v/v), and 0.05% antifoam (v/v; Dow Corning, Midland, MI, United States) in purified water. Following dosing, ear temperature was measured by using a k-type thermocouple probe digital thermometer (Cole Parmer) every hour for 6 h and then at 24 h. Blood samples for plasma exposure measurement were obtained at the same time. Blood was collected via a tail snip directly into a 20-μL EDTA-coated capillary and immediately spotted onto a Whatman DMPK-C DBS card (GE Healthcare Bio-Sciences). Tail snips were performed by removing approximately 1 mm of the tail by using a scalpel. Blood flow was initiated by gentle squeezing of the tail. No analgesia or anesthesia was used during blood collections. A single sample and spot were collected per time point. The DBS cards were allowed to dry for approximately 2 h at room temperature, after which the cards were placed in a zip-top bag, stored, and shipped at ambient temperature.

[1] = 0.03 mg/kg, oral 0.03 mg/kg, FU 0.053, read-out: Unbound Concentration, Mean
[2] = 0.03 mg/kg, oral 0.03 mg/kg, dried blood spot, read-out: Concentration, Mean
[3] = 0.03 mg/kg, oral 0.03 mg/kg, FU 0.053, read-out: Unbound Concentration, individual animals
[4] = 0.03 mg/kg, oral 0.03 mg/kg, dried blood spot, read-out: Concentration, individual animals
[5] = 0.1 mg/kg, oral 0.1 mg/kg, FU 0.053, read-out: Unbound Concentration, Mean
[6] = 0.1 mg/kg, oral 0.1 mg/kg, FU 0.053, read-out: Unbound Concentration, individual animals
[7] = 0.1 mg/kg, oral 0.1 mg/kg, dried blood spot, read-out: Concentration, Mean
[8] = 0.1 mg/kg, oral 0.1 mg/kg, dried blood spot, read-out: Concentration, individual animals
[9] = 0.3 mg/kg, oral 0.3 mg/kg, FU 0.053, read-out: Unbound Concentration, Mean
[10] = 0.3 mg/kg, oral 0.3 mg/kg, FU 0.053, read-out: Unbound Concentration, individual animals
[11] = 0.3 mg/kg, oral 0.3 mg/kg, dried blood spot, read-out: Concentration, Mean
[12] = 0.3 mg/kg, oral 0.3 mg/kg, dried blood spot, read-out: Concentration, individual animals
[13] = 1 mg/kg, oral 1 mg/kg, FU 0.053, read-out: Unbound Concentration, Mean

concentration at 1 h [1]: 2.52 nM
concentration at 1 h [2]: 47.5 nM
concentration at 2 h [1]: 2.66 nM
concentration at 2 h [3]: 2.17 nM
concentration at 2 h [2]: 50.2 nM
concentration at 2 h [4]: 40.9 nM
concentration at 3 h [1]: 2.23 nM
concentration at 3 h [3]: 2.04 nM
concentration at 3 h [2]: 42.1 nM
concentration at 3 h [4]: 38.4 nM
concentration at 4 h [1]: 1.81 nM
concentration at 4 h [3]: 1.67 nM
concentration at 4 h [2]: 34.2 nM
concentration at 4 h [4]: 31.6 nM
concentration at 5 h [1]: 1.5 nM
concentration at 5 h [3]: 1.86 nM
concentration at 5 h [2]: 28.3 nM
concentration at 5 h [4]: 35.1 nM
concentration at 6 h [1]: 1.16 nM
concentration at 6 h [2]: 22 nM
concentration at 24 h [1]: 0 nM
concentration at 24 h [2]: 0 nM
concentration at 1 h [5]: 10.6 nM
concentration at 1 h [6]: 13.2 nM
concentration at 1 h [7]: 201 nM
concentration at 1 h [8]: 249 nM
concentration at 2 h [5]: 10 nM
concentration at 2 h [6]: 11.7 nM
concentration at 2 h [7]: 189 nM
concentration at 2 h [8]: 220 nM
concentration at 3 h [5]: 8.98 nM
concentration at 3 h [6]: 8.9 nM
concentration at 3 h [7]: 169 nM
concentration at 3 h [8]: 168 nM
concentration at 4 h [5]: 6.75 nM
concentration at 4 h [6]: 7.1 nM
concentration at 4 h [7]: 127 nM
concentration at 4 h [8]: 134 nM
concentration at 5 h [5]: 5.13 nM
concentration at 5 h [6]: 5.99 nM
concentration at 5 h [7]: 96.9 nM
concentration at 5 h [8]: 113 nM
concentration at 6 h [5]: 4.61 nM
concentration at 6 h [6]: 4.62 nM
concentration at 6 h [7]: 87 nM
concentration at 6 h [8]: 87.1 nM
concentration at 24 h [5]: 0.462 nM
concentration at 24 h [6]: 2.31 nM
concentration at 24 h [7]: 8.7 nM
concentration at 24 h [8]: 43.5 nM
concentration at 1 h [9]: 27.7 nM
concentration at 1 h [10]: 24.2 nM
concentration at 1 h [11]: 523 nM
concentration at 1 h [12]: 456 nM
concentration at 2 h [9]: 23.7 nM
concentration at 2 h [10]: 19.3 nM
concentration at 2 h [11]: 447 nM
concentration at 2 h [12]: 364 nM
concentration at 3 h [9]: 16.6 nM
concentration at 3 h [10]: 14.7 nM
concentration at 3 h [11]: 314 nM
concentration at 3 h [12]: 278 nM
concentration at 4 h [9]: 11.8 nM
concentration at 4 h [10]: 12.3 nM
concentration at 4 h [11]: 223 nM
concentration at 4 h [12]: 232 nM
concentration at 5 h [9]: 8.68 nM
concentration at 5 h [10]: 8.75 nM
concentration at 5 h [11]: 164 nM
concentration at 5 h [12]: 165 nM
concentration at 6 h [9]: 6.73 nM
concentration at 6 h [10]: 7.26 nM
concentration at 6 h [11]: 127 nM
concentration at 6 h [12]: 137 nM
concentration at 24 h [9]: 0 nM
concentration at 24 h [11]: 0 nM
concentration at 1 h [13]: 92.5 nM
concentration at 1 h (1 mg/kg, oral 1 mg/kg, dried blood spot, read-out: Concentration, Mean): 1750 nM
concentration at 2 h [13]: 87.6 nM
Structure (SMILES): O=c1c2nnc(C3(C4CC4)CC3)n2c2c(n1CC1CC1)CCCC2 [BTTQ, 1-[1,1′-bi(cyclopropyl)-1-yl]-5-(cyclopropylmethyl)-6,7,8,9-tetrahydro[1,2,4]triazolo[4,3-A]quinoxaline-4(5H)-one]
